Measurements taken from patent publication US10414811B2, “Protease-resistant lipidated GLP-1 analogs” (MEDIMMUNE LIMITED, priority 2015, dated 2019).
pEC50: −log10 of the molar value. Read-outs that look alike come from different tables or passages of the source. Numbered stars: 1 amine (or outer) side, 2 acyl side, 3 side chain; on linkers, the order of the positions; unused ones are H or OH. Square brackets hold non-standard residues; d marks the D form. Side chains are listed from the residue outwards. Peptide text beside a SMILES is read from it. * marks the point of attachment. γGlu = O=C(O)[C@H](CCC(=O)[*:2])N[*:1]; Stearoyl = CCCCCCCCCCCCCCCCCC(=O)*; αMeF = C[C@](N)(Cc1ccccc1)C(=O)O; αMeK = C[C@](N)(CCCCN)C(=O)O; Lauroyl = CCCCCCCCCCCC(=O)*; αMeS = C[C@](N)(CO)C(=O)O; AEEA = NCCOCCOCC(=O)O; Aib = CC(C)(N)C(=O)O

Legend:
Assay type in all cases: cell-based
[1] = molecular target: T1, human GLP-1 receptor (GLP-1R) (Homo sapiens, UniProt P43220); experiment: cAMP assay, human GLP-1R cells; conditions: for EC50: mean of n1 and n2
T1 construct: expressed in transfected cells
T1 sequence (P43220 24-463): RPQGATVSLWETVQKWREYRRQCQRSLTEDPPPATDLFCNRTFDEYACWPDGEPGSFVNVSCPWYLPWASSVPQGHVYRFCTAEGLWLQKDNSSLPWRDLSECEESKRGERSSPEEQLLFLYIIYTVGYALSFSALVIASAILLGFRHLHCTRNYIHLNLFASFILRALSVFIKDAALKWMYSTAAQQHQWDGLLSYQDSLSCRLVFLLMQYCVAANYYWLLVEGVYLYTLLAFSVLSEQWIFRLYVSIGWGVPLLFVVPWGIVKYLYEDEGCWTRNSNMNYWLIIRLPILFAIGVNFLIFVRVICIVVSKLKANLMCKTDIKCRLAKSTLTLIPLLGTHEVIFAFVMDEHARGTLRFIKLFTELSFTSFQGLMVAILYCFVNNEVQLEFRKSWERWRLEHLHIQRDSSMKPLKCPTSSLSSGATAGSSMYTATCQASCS
In short: (§1)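 Peptide-stimulated cAMP measured by two-step HTRF after a 30 min room-temperature incubation with receptor-expressing cells (hGLP-1R, hGIPR at 1×10^5 cells/ml; hGCGR at 2×10^5 cells/ml). Duplicate dilutions; EC50 from 4-parameter logistic fit of % Delta F.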

[2] = molecular target: T2, human glucagon receptor (GCGR) (Homo sapiens, UniProt P47871); experiment: cAMP assay, human GCGR cells
T2 construct: expressed in transfected cells
T2 sequence (P47871 26-477): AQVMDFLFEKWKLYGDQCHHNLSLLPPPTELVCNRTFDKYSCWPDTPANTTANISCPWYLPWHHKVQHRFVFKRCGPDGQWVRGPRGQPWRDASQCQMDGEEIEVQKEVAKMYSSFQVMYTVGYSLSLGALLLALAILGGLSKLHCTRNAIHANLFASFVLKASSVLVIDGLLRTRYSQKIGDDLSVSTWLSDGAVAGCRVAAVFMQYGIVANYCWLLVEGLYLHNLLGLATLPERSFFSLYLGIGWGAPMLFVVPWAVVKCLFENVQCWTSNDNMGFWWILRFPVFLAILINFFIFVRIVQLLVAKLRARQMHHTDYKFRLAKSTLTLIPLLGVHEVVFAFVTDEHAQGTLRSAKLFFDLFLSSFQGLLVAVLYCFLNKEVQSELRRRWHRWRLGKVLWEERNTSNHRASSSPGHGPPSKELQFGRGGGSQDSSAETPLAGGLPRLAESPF
In short: as §1

[3] = molecular target: T3, human glucose-dependent insulinotropic peptide receptor (GIPR) (Homo sapiens, UniProt P48546); experiment: cAMP assay, human GIPR cells
T3 construct: expressed in transfected cells
T3 sequence (P48546 22-466): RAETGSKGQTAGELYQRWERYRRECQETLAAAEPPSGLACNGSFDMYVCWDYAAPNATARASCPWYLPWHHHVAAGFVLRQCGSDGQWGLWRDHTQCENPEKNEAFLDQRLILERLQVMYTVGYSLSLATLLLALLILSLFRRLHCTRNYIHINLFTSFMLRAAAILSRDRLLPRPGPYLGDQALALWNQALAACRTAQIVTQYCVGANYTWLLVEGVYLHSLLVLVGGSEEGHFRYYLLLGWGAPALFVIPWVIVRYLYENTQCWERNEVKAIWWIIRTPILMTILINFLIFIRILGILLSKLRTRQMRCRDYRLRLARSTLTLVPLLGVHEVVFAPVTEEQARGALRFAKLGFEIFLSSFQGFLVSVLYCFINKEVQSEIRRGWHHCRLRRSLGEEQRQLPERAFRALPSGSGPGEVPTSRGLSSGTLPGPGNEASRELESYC
In short: as §1

GLP-1R (INS1e assay) = molecular target: T4, GLP-1R (INS1e assay) (Rattus norvegicus, UniProt P32301); experiment: INS1e assay, cAMP activity at GLP-1R; conditions: for EC50: mean of n1 and n2, read-out: INS1e assay EC50 Mean pM GLP-1R
T4 construct: endogenous in cells; host or cells: INS-1E cells
T4 sequence (P32301 22-463): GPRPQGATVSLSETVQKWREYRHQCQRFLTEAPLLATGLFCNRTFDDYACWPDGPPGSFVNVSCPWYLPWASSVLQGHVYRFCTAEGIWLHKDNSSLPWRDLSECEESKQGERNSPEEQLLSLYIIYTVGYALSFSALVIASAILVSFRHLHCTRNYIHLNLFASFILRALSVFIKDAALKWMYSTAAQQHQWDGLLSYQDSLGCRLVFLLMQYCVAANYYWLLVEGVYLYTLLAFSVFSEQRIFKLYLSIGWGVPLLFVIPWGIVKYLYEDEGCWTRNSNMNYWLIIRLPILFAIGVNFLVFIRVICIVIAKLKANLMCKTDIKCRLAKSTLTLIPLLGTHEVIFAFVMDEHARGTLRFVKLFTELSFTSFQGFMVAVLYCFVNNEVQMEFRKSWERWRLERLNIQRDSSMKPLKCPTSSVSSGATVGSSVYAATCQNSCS
In short: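 It pairs cAMP-d2 acceptor with anti-cAMP cryptate donor, both prepared 1/20 in conjugate/lysis buffer, applied as a two-step protocol.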

[4] = cAMP assay, first determination (n1), read-out: Primary assay EC50 GLP-1R n1
[5] = cAMP assay, second determination (n2), read-out: Primary assay EC50 GLP-1R n2
[6] = cAMP assay, first determination (n1), read-out: Primary assay EC50 Gluc-R (n1)
[7] = cAMP assay, second determination (n2), read-out: Primary assay EC50 Gluc-R (n2)
[8] = cAMP assay, first determination (n1), read-out: Primary assay EC50 GIP-R (n1)
[9] = cAMP assay, second determination (n2), read-out: Primary assay EC50 GIP-R (n2)
[10] = mono-lipidated peptides, replicate n1, read-out: INS1e assay EC50 GLP-1R n1
[11] = mono-lipidated peptides, replicate n2, read-out: INS1e assay EC50 GLP-1R n2

| pEC50 [1, 4] | pEC50 [1, 5] | EC50 ([1]; read-out: Mean pM GLP-1R) [pM] | pEC50 [2, 6] | pEC50 [2, 7] | pEC50 [3, 8] | pEC50 [3, 9] | EC50 (GLP-1R (INS1e assay); mono-lipidated peptides) [pM] | pEC50 (GLP-1R (INS1e assay); [10]) | pEC50 (GLP-1R (INS1e assay); [11]) | EC50 ([1]; tris-lipidated peptides, read-out: Primary assay EC50 Mean pM GLP-1R) [pM] | pEC50 ([1]; tris-lipidated peptides, replicate n1, read-out: Primary assay EC50 GLP-1R n1) | pEC50 ([1]; tris-lipidated peptides, replicate n2, read-out: Primary assay EC50 GLP-1R n2) | pEC50 ([2]; tris-lipidated peptides, first replicate, read-out: Primary assay EC50 Gluc-R (n1)) | pEC50 ([3]; tris-lipidated peptides, second replicate, read-out: Primary assay EC50 GIP-R (n2)) | EC50 (GLP-1R (INS1e assay); tris-lipidated peptides) [pM] | pEC50 (GLP-1R (INS1e assay); tris-lipidated peptides, replicate n1, read-out: INS1e assay EC50 GLP-1R n1) | pEC50 (GLP-1R (INS1e assay); tris-lipidated peptides, replicate n2, read-out: INS1e assay EC50 GLP-1R n2) | Compound |
| --- | --- | --- | --- | --- | --- | --- | --- | --- | --- | --- | --- | --- | --- | --- | --- | --- | --- | --- |
| 10.51 | 10.77 | 24 | ≤ 7.55 | ≤ 7.55 | ≤ 7.55 | ≤ 7.55 | 2610 | 8.41 | 8.88 | – | – | – | – | – | – | – | – | CCCCCCCCCCCCCCCC(=O)N[C@@H](CCC(=O)NCCCC[C@H](NC(=O)[C@H](C)NC(=O)[C@H](C)NC(=O)[C@H](CCC(=O)O)NC(=O)CNC(=O)[C@H](CCC(=O)O)NC(=O)[C@H](CC(C)C)NC(=O)[C@](C)(Cc1ccccc1)NC(=O)[C@H](CO)NC(=O)[C@](C)(CO)NC(=O)[C@@H](NC(=O)[C@H](CC(=O)O)NC(=O)[C@H](CO)NC(=O)[C@@H](NC(=O)[C@](C)(Cc1ccccc1)NC(=O)[C@H](CO)NC(=O)CNC(=O)[C@H](CCC(=O)O)NC(=O)C(C)(C)NC(=O)[C@@H](N)Cc1c[nH]cn1)[C@@H](C)O)C(C)C)C(=O)N[C@@H](CCC(=O)O)C(=O)N[C@@](C)(Cc1ccccc1)C(=O)N[C@H](C(=O)N[C@@H](C)C(=O)N[C@@](C)(Cc1ccccc1)C(=O)N[C@H](C(=O)N[C@H](C(=O)N[C@@](C)(CCCCN)C(=O)NCC(=O)NCC(N)=O)C(C)C)C(C)C)[C@@H](C)CC)C(=O)O [compound 80] |
| 11.85 | 11.64 | 1.8 | ≤ 7.60 | ≤ 7.60 | ≤ 7.60 | ≤ 7.60 | 11 | 10.90 | 11.00 | – | – | – | – | – | – | – | – | CCCCCCCCCCCCCCCCCC(=O)NCCOCCOCC(=O)NCCOCCOCC(=O)NCCOCCOCC(=O)NCCCC[C@H](NC(=O)[C@H](C)NC(=O)[C@H](C)NC(=O)[C@H](CCC(=O)O)NC(=O)CNC(=O)[C@H](CCC(=O)O)NC(=O)[C@H](CC(C)C)NC(=O)[C@](C)(Cc1ccccc1)NC(=O)[C@H](CO)NC(=O)[C@](C)(CO)NC(=O)[C@@H](NC(=O)[C@H](CC(=O)O)NC(=O)[C@H](CO)NC(=O)[C@@H](NC(=O)[C@](C)(Cc1ccccc1)NC(=O)[C@H](CO)NC(=O)CNC(=O)[C@H](CCC(=O)O)NC(=O)C(C)(C)NC(=O)[C@@H](N)Cc1c[nH]cn1)[C@@H](C)O)C(C)C)C(=O)N[C@@H](CCC(=O)O)C(=O)N[C@@](C)(Cc1ccccc1)C(=O)N[C@H](C(=O)N[C@@H](C)C(=O)N[C@@H](Cc1c[nH]c2ccccc12)C(=O)N[C@H](C(=O)N[C@H](C(=O)N[C@@](C)(CCCCN)C(=O)NCC(=O)NCC(N)=O)C(C)C)C(C)C)[C@@H](C)CC [compound 55] (H-H[Aib]EGS[αMeF]TSDV[αMeS]S[αMeF]LEGEAAK([AEEA-AEEA-AEEA-Stearoyl])E[αMeF]IAWVV[αMeK]GG-NH2) |
| – | – | – | – | – | – | – | – | – | – | 87.4 | 10.26 | 9.92 | 7.70 | 7.70 | 4910 | 8.17 | 8.51 | CCCCCCCCCCCC(=O)N[C@@H](CCC(=O)NCCOCCOCC(=O)NCCOCCOCC(=O)NCCCC[C@H](NC(=O)[C@H](C)NC(=O)[C@@H](NC(=O)[C@H](Cc1ccccc1)NC(=O)[C@H](CCC(=O)O)NC(=O)[C@](C)(CCCCN)NC(=O)[C@H](C)NC(=O)[C@H](C)NC(=O)[C@H](CCC(=O)O)NC(=O)[C@H](CCCCNC(=O)COCCOCCNC(=O)COCCOCCNC(=O)CC[C@H](NC(=O)CCCCCCCCCCC)C(=O)O)NC(=O)[C@H](CCC(=O)O)NC(=O)[C@H](CC(C)C)NC(=O)[C@H](Cc1ccc(O)cc1)NC(=O)[C@H](CO)NC(=O)[C@H](CO)NC(=O)[C@H](CCCCNC(=O)COCCOCCNC(=O)COCCOCCNC(=O)CC[C@H](NC(=O)CCCCCCCCCCC)C(=O)O)NC(=O)[C@H](CC(=O)O)NC(=O)[C@H](CO)NC(=O)[C@@H](NC(=O)[C@](C)(Cc1ccccc1)NC(=O)[C@H](CO)NC(=O)CNC(=O)[C@H](CCC(=O)O)NC(=O)C(C)(C)NC(=O)[C@@H](N)Cc1c[nH]cn1)[C@@H](C)O)[C@@H](C)CC)C(=O)N[C@H](C(=O)N[C@H](C(=O)N[C@@H](CCC(=O)O)C(=O)NCC(=O)NCC(N)=O)C(C)C)C(C)C)C(=O)O [compound 455] (H-H[Aib]EGS[αMeF]TSDK([AEEA-AEEA-γGlu-Lauroyl])SSYLEK([AEEA-AEEA-γGlu-Lauroyl])EAA[αMeK]EFIAK([AEEA-AEEA-γGlu-Lauroyl])VVEGG-NH2) |
